Results reported in patent US8829029B2, “Dual modulators of 5HT2A and D3 receptors” (Hoffmann-La Roche Inc., priority 2008, dated 2014).

Key:
[1] = biological target: human 5-HT2A serotonin receptor (Homo sapiens (Human), UniProt P28223); test: Radioligand binding ([3H]-ketanserin) to cloned human 5-HT2A receptor expressed in HEK-293 EBNA cells; conditions: membranes of transfected HEK-293 EBNA cells, 1.1 nM [3H]-ketanserin, 1 h at RT
Description: The ability of the compounds to bind to the 5-HT2A, D3 and D2 receptors was determined using radioligand binding to cloned receptors selectively expressed in HEK-293 EBNA cells.
(§1) HEK-293 EBNA cells were transiently transfected with expression plasmids encoding for the human D2 or D3 dopamine- or for the human 5-HT2A serotonin receptor, respectively. The cells were harvested 48 h post-transfection, washed three times with cold PBS and stored at −80° C. prior to use. The pellet was suspended in cold 50 mM Tris-HCl buffer containing 10 mM EDTA (pH 7.4) and homogenized with a Polytron (Kinematica AG, Basel, Switzerland) for 20-30 sec at 12,000 rpm. After centrifugation at 48,000×g for 30 min at 4° C., the pellet was resuspended in cold 10 mM Tris-HCl buffer containing 0.1 mM EDTA (pH 7.4), homogenized, and centrifuged as above. This pellet was further resuspended in a smaller volume of ice cold 10 mM Tris-HCl buffer containing 0.1 mM EDTA (pH 7.4) and homogenized with a Polytron for 20-30 sec at 12,000 rpm. The protein content of this homogenate was determined with the Bio-Rad (Bradford) Protein Assay (Biorad Laboratories GmbH, München, Germany) according to the instructions of the manufacturer using gamma globulin as the standard. This homogenate was stored at −80° C. in aliquots and thawed immediately prior to use.
Aliquots of membrane preparations were thawed at RT, resuspended in assay buffer (D2, D3: 50 mM Tris-HCl, 120 mM NaCl, 5 mM MgCl2, 1 mM EDTA, 5 mM KCl, 1.5 mM CaCl2, pH=7.4; 5-HT2A: 50 mM Tris-HCl, 10 mM MgCl2, 1 mM EGTA, pH=7.4), homogenized with a Polytron for 20-30 sec at 12,000 rpm and adjusted to a final concentration of approximately 7.5 μg protein/well (D2, D3) and 15 μg protein/well (5-HT2A), respectively.
(§2) The binding affinity (Ki) of the compounds was determined using radioligand binding. Membranes were incubated in a total volume of 200 μl with a fixed concentration of radioligand (final concentration approximately 0.7 nM [^3H]-spiperone for D2, 0.5 nM [^3H]-spiperone for D3, and 1.1 nM [^3H]-ketanserin for 5-HT2A) and ten concentrations of test compound in ranging between 10 μM-0.1 nM for 1 h at RT. At the end of the incubation, the reaction mixtures were filtered on to unifilter 96-well white microplates with bonded GF/C filters (Packard BioScience, Zürich, Switzerland; preincubated for 1 h in 0.1% polyethylenimine (PEI) in assay buffer) with a Filtermate 196 harvester (Packard BioScience) and washed 3 times with cold assay buffer. The nonspecific binding was determined with equally composed reaction mixtures in the presence of 10 μM unlabelled spiperone. Per well 45 μl of Microscint 40 (Perkin Elmer, Schwerzenbach, Switzerland) was added, plates for sealed, shaken for 20 min and counted for 3 min on a Topcount Microplate Scintillation Counter (Canberra Packard SA, Zürich, Switzerland) with quenching correction.
(§3) The CPM value for each duplicate of a concentration of competing compound was averaged (y1), then the % specific binding was calculated according to the equation (((y1−non-specific)/(total binding−non-specific))×100). Graphs were plotted with the % specific binding using XLfit, a curve fitting program that iteratively plots the data using Levenburg Marquardt algorithm. The single site competition analysis equation used was y=A+((B−A)/(1+((x/C)^D))), where y is the % specific binding, A is the minimum y, B is the maximum y, C is the IC50, x is the log10 of the concentration of the competing compound and D is the slope of the curve (the Hill Coefficient). From these curves the IC50 (inhibition concentration at which 50% specific binding of the radioligand was displaced) and Hill coefficient were determined. The affinity constant (Ki) was calculated using the Cheng-Prusoff equation Ki=(IC50/1+([L]/Kd), where [L] is the concentration of radioligand and Kd is the dissociation constant of the radioligand at the receptor as determined by the saturation isotherm.

[2] = biological target: human D3 dopamine receptor (Homo sapiens (Human), UniProt P35462); test: Radioligand binding ([3H]-spiperone) to cloned human D3 receptor expressed in HEK-293 EBNA cells; conditions: membranes of transfected HEK-293 EBNA cells, 0.5 nM [3H]-spiperone, 1 h at RT
Chain of human D3 dopamine receptor (P35462 whole entry): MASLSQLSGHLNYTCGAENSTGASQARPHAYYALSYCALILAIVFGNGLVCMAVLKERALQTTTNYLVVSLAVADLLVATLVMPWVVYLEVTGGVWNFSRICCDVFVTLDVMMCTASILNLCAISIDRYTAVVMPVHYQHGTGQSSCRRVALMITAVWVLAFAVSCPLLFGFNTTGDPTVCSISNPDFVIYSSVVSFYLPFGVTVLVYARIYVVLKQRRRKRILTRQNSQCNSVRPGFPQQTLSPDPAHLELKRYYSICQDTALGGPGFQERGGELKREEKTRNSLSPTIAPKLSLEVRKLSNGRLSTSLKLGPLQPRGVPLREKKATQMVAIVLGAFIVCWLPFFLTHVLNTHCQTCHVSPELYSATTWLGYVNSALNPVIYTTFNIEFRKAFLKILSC
Description: as §1, with “The pellet was suspended in cold 50 mM Tris-HCl buffer containing 10 mM EDTA (pH 7.4) and homogenized with a Polytron (Kinematica AG, Basel, Switzerland) for 20-30 sec at 12,000 rpm.” left out, “This pellet was further resuspended in a smaller volume of ice cold 10 mM Tris-HCl buffer containing 0.1 mM EDTA (pH 7.4) and homogenized with a Polytron for 20-30 sec at 12,000 rpm.” left out
as §2, §3

Structure (SMILES)	Ki [1]	Ki [2]
O=C(N[C@H]1CC[C@H](CCN2CCC(c3noc4cc(F)ccc34)CC2)CC1)c1ccc(N2CCCCC2)cc1 [Example 14, N-trans (4-{2-[4-(6-Fluoro-benzo[d]isoxazol-3-yl)-piperidin-1-yl]-ethyl}-cyclohexyl)-4-piperidin-1-yl-benzamide]	2.6 nM	8.69 nM
O=C(N[C@H]1CC[C@H](CCN2CCC(c3noc4cc(F)ccc34)CC2)CC1)c1cnc(N2CCOCC2)nc1 [Example 4D, 2-Morpholin-4-yl-pyrimidine-5-carboxylic acid trans (4-{2-[4-(6-fluoro-benzo[d]isoxazol-3-yl)-piperidin-1-yl]-ethyl}-cyclohexyl)-amide]	2.45 nM	15.3 nM
COc1cc(C(=O)N[C@H]2CC[C@H](CCN3CCC(c4noc5cc(F)ccc45)CC3)CC2)ccn1 [Example 13, N-trans (4-{2-[4-(6-Fluoro-benzo[d]isoxazol-3-yl)-piperidin-1-yl]-ethyl}-cyclohexyl)-2-methoxy-isonicotinamide]	1.62 nM	3.74 nM
CC(C)(C)Oc1ccc(C(=O)N[C@H]2CC[C@H](CCN3CCC(c4noc5cc(F)ccc45)CC3)CC2)cc1 [Example 9, 4-tert-Butoxy-N-trans (4-{2-[4-(6-fluoro-benzo[d]isoxazol-3-yl)-piperidin-1-yl]-ethyl}-cyclohexyl)-benzamide]	1.72 nM	3.42 nM
CO[C@H]1CC[C@H](CC(=O)N[C@H]2CC[C@H](CCN3CCC(c4noc5ccc(Cl)cc45)CC3)CC2)CC1 [Example 58, N-trans-(4-{2-[4-(5-Chloro-benzo[d]isoxazol-3-yl)-piperidin-1-yl]-ethyl}-cyclohexyl)-2-(4-methoxy-cyclohexyl)-acetamide]	24.7 nM	8.38 nM
COCCC(=O)N[C@H]1CC[C@H](CCN2CCC(c3noc4cc(F)ccc34)CC2)CC1 [Example 3, N-trans (4-{2-[4-(6-Fluoro-benzo[d]isoxazol-3-yl)-piperidin-1-yl]-ethyl}-cyclohexyl)-3-methoxy-propionamide]	1.81 nM	4.75 nM
O=C(N[C@H]1CC[C@H](CCN2CCC(c3noc4cc(F)ccc34)CC2)CC1)C1(O)CC1 [Example 18, 1-Hydroxy-cyclopropanecarboxylic acid trans (4-{2-[4-(6-fluoro-benzo[d]isoxazol-3-yl)-piperidin-1-yl]-ethyl}-cyclohexyl)-amide]	1.44 nM	5.92 nM
O=C(N[C@H]1CC[C@H](CCN2CCC(c3noc4cc(F)ccc34)CC2)CC1)c1ccc(N2CCOCC2)c(F)c1 [Example 5, 3-Fluoro-N-trans (4-{2-[4-(6-fluoro-benzo[d]isoxazol-3-yl)-piperidin-1-yl]-ethyl}-cyclohexyl)-4-morpholin-4-yl-benzamide]	17.5 nM	45.3 nM
COC1(C)CCC(CC(=O)N[C@H]2CC[C@H](CCN3CCC(c4noc5cc(Cl)ccc45)CC3)CC2)CC1 (stereo partly drawn) [Example 42, N-trans(4-{2-[4-(6-Chloro-benzo[d]isoxazol-3-yl)-piperidin-1-yl]-ethyl}-cyclohexyl)-2-(4-methoxy-4-methyl-cyclohexyl)-acetamide]	19 nM	8 nM
CO[C@]1(C)CC[C@H](CC(=O)N[C@H]2CC[C@H](CCN3CCC(c4noc5cc(Cl)ccc45)CC3)CC2)CC1 [Example 42B, N-trans(4-{2-[4-(6-Chloro-benzo[d]isoxazol-3-yl)-piperidin-1-yl]-ethyl}-cyclohexyl)-2-(4-cis-methoxy-4-methyl-cyclohexyl)-acetamide]	14 nM	4 nM
O=C(N[C@H]1CC[C@H](CCN2CCC(c3noc4cc(F)ccc34)CC2)CC1)C1(C(F)(F)F)CCC1 [Example 19, 1-Trifluoromethyl-cyclobutanecarboxylic acid trans (4-{2-[4-(6-fluoro-benzo[d]isoxazol-3-yl)-piperidin-1-yl]-ethyl}-cyclohexyl)-amide]	2.26 nM	7.74 nM
